Assay results from patent US20220024906A1, “COMPOUNDS AND COMPOSITIONS FOR TREATING CONDITIONS ASSOCIATED WITH STING ACTIVITY” (IFM Due, Inc., priority 2020, published 2022).

What follows are compounds tested against T1, hSTING (Homo sapiens, UniProt Q86WV6, G230A/H232R/R293Q/R71H) (assay: STING reporter assay (luciferase) in THP1-Dual KO-IFNAR2 cells stimulated with 2′3′cGAMP). Settings: 15 μM 2′3′cGAMP transfected, 24 h, luciferase reporter activity.
T1 construct: host or cells: THP1-Dual KO-IFNAR2 cells
T1 sequence (Q86WV6 whole entry R71H/G230A/H232R/R293Q): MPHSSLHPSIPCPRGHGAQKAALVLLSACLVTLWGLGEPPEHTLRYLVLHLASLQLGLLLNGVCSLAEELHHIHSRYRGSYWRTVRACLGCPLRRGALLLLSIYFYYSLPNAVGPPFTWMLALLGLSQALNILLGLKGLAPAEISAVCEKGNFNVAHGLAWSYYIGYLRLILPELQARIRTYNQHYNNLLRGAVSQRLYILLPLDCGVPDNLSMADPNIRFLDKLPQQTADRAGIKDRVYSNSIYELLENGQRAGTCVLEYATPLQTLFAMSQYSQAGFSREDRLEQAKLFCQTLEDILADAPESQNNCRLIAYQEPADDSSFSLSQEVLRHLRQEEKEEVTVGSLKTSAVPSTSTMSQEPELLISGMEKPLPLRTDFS
Assay type: cell-based
Protocol: STING pathway activation by the compounds described herein was measured using THP1-Dual™ cells (KO-IFNAR2).
THP1-Dual™ KO-IFNAR2 Cells (obtained from invivogen) were maintained in RPMI, 10% FCS, 5 ml P/S, 2 mM L-glut, 10 mM Hepes, and 1 mM sodium pyruvate. Compounds were spotted in empty 384 well tissue culture plates (Greiner 781182) by Echo for a final concentration of 0.0017-100 μM. Cells were plated into the TC plates at 40 μL per well, 2×10E6 cells/mL. For activation with STING ligand, 2′3′cGAMP (MW 718.38, obtained from Invivogen), was prepared in Optimem media.
The following solutions were prepared for each 1×384 plate: • Solution A: 2 mL Optimem with one of the following stimuli: • 60 μL of 10 mM 2′3′cGAMP→150 μM stock • Solution B: 2 mL Optimem with 60 μL Lipofectamine 2000→Incubate 5 min at RT
2 mL of solution A and 2 ml Solution B was mixed and incubated for 20 min at room temperature (RT). 20 μL of transfection solution (A+B) was added on top of the plated cells, with a final 2′3′cGAMP concentration of 15 μM. The plates were then centrifuged immediately at 340 g for 1 minute, after which they were incubated at 37° C., 5% CO2, >98% humidity for 24 h. Luciferase reporter activity was then measured. EC50 values were calculated by using standard methods known in the art.
Luciferase reporter assay: 10 μL of supernatant from the assay was transferred to white 384-plate with flat bottom and squared wells. One pouch of QUANTI-Luc™ Plus was dissolved in 25 mL of water. 100 μL of QLC Stabilizer per 25 mL of QUANTI-Luc™ Plus solution was added. 50 μL of QUANTI-Luc™ Plus/QLC solution per well was then added. Luminescence was measured on a Platereader (e.g., Spectramax I3X (Molecular Devices GF3637001)).
Luciferase reporter activity was then measured. EC50 values were calculated by using standard methods known in the art.

| EC50 [µM] | SMILES |
| --- | --- |
| 1 to 5 | O=C(CCc1ccc(C(F)(F)F)nc1)Nc1c[nH]c2cc(F)c(F)cc12 [Compound 117, N-(5,6-difluoro-1H-indol-3-yl)-3-(6-(trifluoromethyl)pyridin-3-yl)propanamide] |
| 5 to 100 | COc1ccc(CC(C)(C)C(=O)Nc2c[nH]c3cc(F)c(F)cc23)cc1 [Compound 133, N-(5,6-difluoro-1H-indol-3-yl)-3-(4-methoxyphenyl)-2,2-dimethylpropanamide] |
| 1 to 5 | O=C(CCc1cncc(C(F)(F)F)c1)Nc1c[nH]c2cc(F)c(F)cc12 [Compound 119, N-(5,6-difluoro-1H-indol-3-yl)-3-(5-(trifluoromethyl)pyridin-3-yl)propanamide] |
| 1 to 5 | CC(Oc1ccc(C(F)(F)F)cc1)C(=O)Nc1c[nH]c2cc(F)c(F)cc12 (stereo not drawn) [Compound 131, N-(5,6-difluoro-1H-indol-3-yl)-2-(4-(trifluoromethyl)phenoxy)propanamide] |
| 5 to 100 | COc1ccc(CCC(=O)Nc2c[nH]c3cc(F)c(F)cc23)cn1 [Compound 116, N-(5,6-difluoro-1H-indol-3-yl)-3-(6-methoxypyridin-3-yl)propanamide] |
| 1 to 5 | Cc1cc(CC(=O)Nc2c[nH]c3cc(F)c(F)cc23)cnc1N1CCC(F)(F)CC1 [Compound 126, N-(5,6-difluoro-1H-indol-3-yl)-2-(6-(4,4-difluoropiperidin-1-yl)-5-methylpyridin-3-yl)acetamide] |
| 1 to 5 | O=C(Cc1ccc(OC(F)(F)F)cc1)Nc1c[nH]c2cc(F)c(F)cc12 [Compound 129, N-(5,6-difluoro-1H-indol-3-yl)-2-(4-(trifluoromethoxy)phenyl)acetamide] |
| 0.2 to 1 | CCOc1cccc(/C=C/C(=O)Nc2c[nH]c3cc(F)c(F)cc23)c1 [Compound 128, (E)-N-(5,6-difluoro-1H-indol-3-yl)-3-(3-ethoxyphenyl)acrylamide] |
| 0.2 to 1 | CCOc1cccc(CCC(=O)Nc2c[nH]c3cc(F)c(F)cc23)c1 [Compound 106, N-(5,6-difluoro-1H-indol-3-yl)-3-(3-ethoxyphenyl)propanamide] |
| 0.2 to 1 | COc1ccc(/C=C(\C)C(=O)Nc2c[nH]c3cc(F)c(F)cc23)cc1 [Compound 110, (E)-N-(5,6-difluoro-1H-indol-3-yl)-3-(4-methoxyphenyl)-2-methylacrylamide] |
| 5 to 100 | CC(C)(Oc1ccccc1)C(=O)Nc1c[nH]c2cc(F)c(F)cc12 [Compound 102, N-(5,6-difluoro-1H-indol-3-yl)-2-methyl-2-phenoxypropanamide] |
| 5 to 100 | Cc1ccc(OC(C)(C)C(=O)Nc2c[nH]c3cc(F)c(F)cc23)nc1 [Compound 105, N-(5,6-difluoro-1H-indol-3-yl)-2-methyl-2-((5-methylpyridin-2-yl)oxy)propanamide] |

The remaining lines, values behind:

| SMILES | EC50 [µM] |
| --- | --- |
| Cc1nc(CC(=O)Nc2c[nH]c3ccc(-c4cnn(-c5ccc(C(F)(F)F)cc5)c4)cc23)n[nH]1 [Compound 150, 2-(5-methyl-1H-1,2,4-triazol-3-yl)-N-(5-(1-(4-(trifluoromethyl)phenyl)-1H-pyrazol-4-yl)-1H-indol-3-yl)acetamide] | 1 to 5 |
| Cc1nc(CC(=O)Nc2c[nH]c3ccc(-c4cnn(-c5ccc(C(F)(F)F)cc5)c4)cc23)cs1 [Compound 165, 2-(2-methylthiazol-4-yl)-N-(5-(1-(4-(trifluoromethyl)phenyl)-1H-pyrazol-4-yl)-1H-indol-3-yl)acetamide] | 0.2 to 1 |
| O=C(Cc1cnc(N2CCC(F)(F)CC2)c(Cl)c1)Nc1c[nH]c2ccc(Br)cc12 [Compound 101, N-(5-bromo-1H-indol-3-yl)-2-(5-chloro-6-(4,4-difluoropiperidin-1-yl)pyridin-3-yl)acetamide] | 0.2 to 1 |
| O=C(CCN1CCCC1=O)Nc1c[nH]c2ccc(-c3cnn(-c4ccc(C(F)(F)F)cc4)c3)cc12 [Compound 155, 3-(2-oxopyrrolidin-1-yl)-N-(5-(1-(4-(trifluoromethyl)phenyl)-1H-pyrazol-4-yl)-1H-indol-3-yl)propanamide] | 0.2 to 1 |
| O=C(CCc1ncccn1)Nc1c[nH]c2ccc(-c3cnn(-c4ccc(C(F)(F)F)cc4)c3)cc12 [Compound 147, 3-(pyrimidin-2-yl)-N-(5-(1-(4-(trifluoromethyl)phenyl)-1H-pyrazol-4-yl)-1H-indol-3-yl)propanamide] | 0.2 to 1 |
| C[C@H](NC1CCCCC1)C(=O)Nc1c[nH]c2cc(F)c(F)cc12 [Compound 113, (S)-2-(cyclohexylamino)-N-(5,6-difluoro-1H-indol-3-yl)propanamide] | 5 to 100 |
| O=C(Nc1c[nH]c2cc(F)c(F)cc12)C1CC(Oc2ccccc2)C1 (stereo not drawn) [Compound 114, N-(5,6-difluoro-1H-indol-3-yl)-3-phenoxycyclobutane-1-carboxamide] | 1 to 5 |
| O=C(Nc1c[nH]c2cc(F)c(F)cc12)C1CN(Cc2ccccc2)CCO1 (stereo not drawn) [Compound 118, 4-benzyl-N-(5,6-difluoro-1H-indol-3-yl)morpholine-2-carboxamide] | 1 to 5 |
| O=C(CCc1nccs1)Nc1c[nH]c2ccc(-c3cnn(-c4ccc(C(F)(F)F)cc4)c3)cc12 [Compound 148, 3-(thiazol-2-yl)-N-(5-(1-(4-(trifluoromethyl)phenyl)-1H-pyrazol-4-yl)-1H-indol-3-yl)propanamide] | 0.2 to 1 |
| O=C(Nc1c[nH]c2cc(F)c(F)cc12)C1CCN(S(=O)(=O)c2ccc(F)cc2)C1 (stereo not drawn) [Compound 111, N-(5,6-difluoro-1H-indol-3-yl)-1-((4-fluorophenyl)sulfonyl)pyrrolidine-3-carboxamide] | 1 to 5 |
| O=C(Cc1ncc(F)cn1)Nc1c[nH]c2ccc(-c3cnn(-c4ccc(C(F)(F)F)cc4)c3)cc12 [Compound 145, 2-(5-fluoropyrimidin-2-yl)-N-(5-(1-(4-(trifluoromethyl)phenyl)-1H-pyrazol-4-yl)-1H-indol-3-yl)acetamide] | 0.2 to 1 |
| O=C(Cc1nnn[nH]1)Nc1c[nH]c2ccc(-c3cnn(-c4ccc(C(F)(F)F)cc4)c3)cc12 [Compound 141, 2-(1H-tetrazol-5-yl)-N-(5-(1-(4-(trifluoromethyl)phenyl)-1H-pyrazol-4-yl)-1H-indol-3-yl)acetamide] | 5 to 100 |
| COC1(CC(=O)Nc2c[nH]c3ccc(-c4cnn(-c5ccc(C(F)(F)F)cc5)c4)cc23)CCC1 [Compound 163, 2-(1-methoxycyclobutyl)-N-(5-(1-(4-(trifluoromethyl)phenyl)-1H-pyrazol-4-yl)-1H-indol-3-yl)acetamide] | 0.2 to 1 |
| O=C(CS(=O)(=O)C1CC1)Nc1c[nH]c2ccc(-c3cnn(-c4ccc(C(F)(F)F)cc4)c3)cc12 [Compound 158, 2-(cyclopropylsulfonyl)-N-(5-(1-(4-(trifluoromethyl)phenyl)-1H-pyrazol-4-yl)-1H-indol-3-yl)acetamide] | 0.2 to 1 |
| O=C(CCn1cccn1)Nc1c[nH]c2ccc(-c3cnn(-c4ccc(C(F)(F)F)cc4)c3)cc12 [Compound 143, 3-(1H-pyrazol-1-yl)-N-(5-(1-(4-(trifluoromethyl)phenyl)-1H-pyrazol-4-yl)-1H-indol-3-yl)propanamide] | 0.2 to 1 |
| O=C(CN1CCOC1=O)Nc1c[nH]c2ccc(-c3cnn(-c4ccc(C(F)(F)F)cc4)c3)cc12 [Compound 161, 2-(2-oxooxazolidin-3-yl)-N-(5-(1-(4-(trifluoromethyl)phenyl)-1H-pyrazol-4-yl)-1H-indol-3-yl)acetamide] | 0.2 to 1 |
| O=C(Nc1c[nH]c2ccc(-c3cnn(-c4ccc(C(F)(F)F)cc4)c3)cc12)[C@@H](O)C1CCCCC1 [Compound 152, (S)-2-cyclohexyl-2-hydroxy-N-(5-(1-(4-(trifluoromethyl)phenyl)-1H-pyrazol-4-yl)-1H-indol-3-yl)acetamide] | 1 to 5 |
| O=C(CCn1cncn1)Nc1c[nH]c2ccc(-c3cnn(-c4ccc(C(F)(F)F)cc4)c3)cc12 [Compound 159, 3-(1H-1,2,4-triazol-1-yl)-N-(5-(1-(4-(trifluoromethyl)phenyl)-1H-pyrazol-4-yl)-1H-indol-3-yl)propanamide] | 0.2 to 1 |
| NC1(CC(=O)Nc2c[nH]c3ccc(-c4cnn(-c5ccc(C(F)(F)F)cc5)c4)cc23)CCCCC1 [Compound 151, 2-(1-aminocyclohexyl)-N-(5-(1-(4-(trifluoromethyl)phenyl)-1H-pyrazol-4-yl)-1H-indol-3-yl)acetamide] | 1 to 5 |
| O=C(CC1(O)CCC1)Nc1c[nH]c2ccc(-c3cnn(-c4ccc(C(F)(F)F)cc4)c3)cc12 [Compound 162, 2-(1-hydroxycyclobutyl)-N-(5-(1-(4-(trifluoromethyl)phenyl)-1H-pyrazol-4-yl)-1H-indol-3yl)acetamide] | 0.2 to 1 |
| O=C(Cn1cncn1)Nc1c[nH]c2ccc(-c3cnn(-c4ccc(C(F)(F)F)cc4)c3)cc12 [Compound 164, 2-(1H-1,2,4-triazol-1-yl)-N-(5-(1-(4-(trifluoromethyl)phenyl)-1H-pyrazol-4-yl)-1H-indol-3yl)acetamide] | 1 to 5 |
